Reference: US8415299B2, “Methods for improved avian performance” (priority 2004, dated 2013)
Read-outs that look alike come from different tables or passages of the source. Marks after values point to notes of the source that are not given here.

Legend:
laying hens = conditions: cited from earlier work
[1] = system: 102-week old Hy-Line W-36 White Leghorn hens
Experimental: Experiment 2. […] The photoperiod was 17 hours of light per day (0330 hours to 2030 hours).
The objective was to use T4 to humanely induce molting in hens that are continuously provided with ad libitum access to palatable feed meeting or exceeding all National Research Council (1994) standards. Developing a fully efficacious yet affordable molting protocol was predicated on determining the minimum effective level for T4 supplementation. Factors that potentially may affect the required level of T4 supplementation include: (1) uncertainty regarding the efficiency of T4 absorption by the gastrointestinal tract, (2) the possibility that continuous dietary ingestion of T4 could trigger substantially different biological responses when compared single daily injections, and (3) the likelihood that daily T4 intake would diminish in parallel with molt-related reductions in feed intake associated with cessation in egg production. A spontaneous and voluntary loss of appetite (anorexia) commonly accompanies seasonal molting and broodiness in a variety of avian species (Berry, 2003; Webster, 2003). Accordingly, the responses of hens to diets containing 10, 20, and 40 mg T4/kg, to bracket the anticipated range of T4 needed to cause an effective molt, were determined.

[2] = system: 60-week old Hy-Line W-36 White Leghorn hens; conditions: for Feed Intake: day 22 to day 28
Experimental: Experiment 1. […] The photoperiod was 17 hours of light per day (0330 hours to 2030 hours).

Bovans caged laying hens = experiment: Experiment 6: molting of caged laying hens with dietary L-thyroxine or thyroactive iodinated casein; type: in vivo, chickens; conditions: for 9 Jun. 2005 (9th d Trt) Body Wt Change: 10 hours of light daily; for 25 May 2005 Initial Body Wt: before 7-day pretest
Source text: Experiment 6. Molting of Caged Laying with Dietary L-Thyroxine or Thyroactive Iodinated Casein
In Experiment 6, a conventional feed withdrawal molting procedure was compared with 5 dietary thyroxine treatments. Body weight loss after 9 days was greater, days to 0% egg production (9 days) shorter, ovary plus oviduct weight numerically lighter on day 9 of treatment, but eggs collected on day 4 of treatment had thinner shells, in the feed withdrawal group.

[3] = system: 66-week-old caged laying hens; conditions: cited from earlier work
turkey breeder hens = experiment: Experiment 7: molting of turkey breeder hens with dietary L-thyroxine, porcine thyroid powder or thyroactive iodinated casein, 10 days; type: in vivo; conditions: 10, 20, or 40 mg T4/kg diet
Source text: Experiment 7. Molting of Turkey Breeder Hens with Dietary L-Thyroxine, PorcineThyroid Powder, or Thyroactive Iodinated Casein. Turkey breeder hens were molted with various dietary thyroxine treatments at Diamond K Research, […]. (Jun. 20-Jul. 1, 2005).

[4] = 40 mg T4/kg test diet for 10 days

For `N[C@@H](Cc1cc(I)c(Oc2cc(I)c(O)c(I)c2)c(I)c1)C(=O)O` [L-thyroxine, 3,5,3′,5′-tetraiodothyronine], the “Effect on egg production and molting” value (laying hens; 0.2 mg per hen for 21 consecutive days (Szelenyi and Peczely 1988)) is given as “diminished egg production but did not result in molting”, the Mortality (laying hens; injected, e.g. 243 micrograms/100 g body weight, White Leghorn hens 7 months of age (Miller et al. 1962)) is given as 47% and the “Time to onset of molt after T4 feeding was initiated” value ([1]; 10 mg T4 kg Group, 10 days on test diets, half of the hens) is given as 11 days. The “Feed consumption change from days 2-4 (% FCC)” value ([1]; 10 mg/kg feed 6 d, Day 11-14) was −19.7%, the “Feed consumption (FC)” value ([1]; 10 mg/kg feed 6 d, Days 2-4 (pre-treatment)) was 101.3 g/hen/d and the “Feed consumption (FC)” value ([1]; 10 mg/kg feed 6 d, Days 5-7) was 60.0 g/hen/d. For the same molecule, the “Feed consumption change from days 2-4 (% FCC)” value ([1]; 10 mg/kg feed 6 d, Days 5-7) was −40.8%, the “Feed consumption (FC)” value ([1]; 10 mg/kg feed 6 d, Days 8-10) was 35.3 g/hen/d and the “Feed consumption change from days 2-4 (% FCC)” value ([1]; 10 mg/kg feed 6 d, Days 8-10) was −65.2%. For the same molecule, the “Feed consumption (FC)” value ([1]; 10 mg/kg feed 10 d, Day 11-14) was 47.3 g/hen/d, the “Feed consumption change from days 2-4 (% FCC)” value ([1]; 10 mg/kg feed 10 d, Day 11-14) was −43.7% and the “Feed consumption (FC)” value ([1]; 10 mg/kg feed 10 d, Days 2-4 (pre-treatment)) was 84.0 g/hen/d. For the same molecule, the “Feed consumption (FC)” value ([1]; 10 mg/kg feed 10 d, Days 5-7) was 56.0 g/hen/d, the “Feed consumption change from days 2-4 (% FCC)” value ([1]; 10 mg/kg feed 10 d, Days 5-7) was −33.3% and the “Feed consumption (FC)” value ([1]; 10 mg/kg feed 10 d, Days 8-10) was 33.7 g/hen/d. For the same molecule, the “Feed consumption change from days 2-4 (% FCC)” value ([1]; 10 mg/kg feed 10 d, Days 8-10) was −59.9%, the “Feed consumption (FC)” value ([1]; 20 mg/kg feed 6 d, Day 11-14) was 73.7 g/hen/d and the “Feed consumption change from days 2-4 (% FCC)” value ([1]; 20 mg/kg feed 6 d, Day 11-14) was −28.4%. For the same molecule, the “Feed consumption (FC)” value ([1]; 20 mg/kg feed 6 d, Days 2-4 (pre-treatment)) was 103.0 g/hen/d, the “Feed consumption (FC)” value ([1]; 20 mg/kg feed 6 d, Days 5-7) was 42.0 g/hen/d and the “Feed consumption change from days 2-4 (% FCC)” value ([1]; 20 mg/kg feed 6 d, Days 5-7) was −59.2%. For the same molecule, the “Feed consumption (FC)” value ([1]; 20 mg/kg feed 6 d, Days 8-10) was 33.7 g/hen/d, the “Feed consumption change from days 2-4 (% FCC)” value ([1]; 20 mg/kg feed 6 d, Days 8-10) was −67.3% and the “Feed consumption (FC)” value ([1]; 20 mg/kg feed 10 d, Day 11-14) was 32.7 g/hen/d. For the same molecule, the “Feed consumption change from days 2-4 (% FCC)” value ([1]; 20 mg/kg feed 10 d, Day 11-14) was −72.9%, the “Feed consumption (FC)” value ([1]; 20 mg/kg feed 10 d, Days 2-4 (pre-treatment)) was 120.7 g/hen/d and the “Feed consumption (FC)” value ([1]; 20 mg/kg feed 10 d, Days 5-7) was 54.7 g/hen/d. For the same molecule, the “Feed consumption change from days 2-4 (% FCC)” value ([1]; 20 mg/kg feed 10 d, Days 5-7) was −54.7%, the “Feed consumption (FC)” value ([1]; 20 mg/kg feed 10 d, Days 8-10) was 30.0 g/hen/d and the “Feed consumption change from days 2-4 (% FCC)” value ([1]; 20 mg/kg feed 10 d, Days 8-10) was −75.1%. The Hen-day egg production ([1]; 20 mg/kg feed 10 d, day 4 (pre-treatment)) was 75%, the Hen-day egg production ([1]; 20 mg/kg feed 10 d, day 30) was 25% and the “Loss of initial body weight” value [1, 4] was “approximately 21%”. The “Reduction of feed intake” value [1, 4] was “approximately 85%”, the “Feed consumption (FC)” value ([1]; 40 mg/kg feed 6 d, Day 11-14) was 46.7 g/hen/d and the “Feed consumption change from days 2-4 (% FCC)” value ([1]; 40 mg/kg feed 6 d, Day 11-14) was −52.5%. The “Feed consumption (FC)” value ([1]; 40 mg/kg feed 6 d, Days 2-4 (pre-treatment)) was 98.3 g/hen/d, the “Feed consumption (FC)” value ([1]; 40 mg/kg feed 6 d, Days 5-7) was 36.7 g/hen/d and the “Feed consumption change from days 2-4 (% FCC)” value ([1]; 40 mg/kg feed 6 d, Days 5-7) was −62.7%. For the same molecule, the “Feed consumption (FC)” value ([1]; 40 mg/kg feed 6 d, Days 8-10) was 13.7 g/hen/d, the “Feed consumption change from days 2-4 (% FCC)” value ([1]; 40 mg/kg feed 6 d, Days 8-10) was −86.1% and the Hen-day egg production ([1]; 40 mg/kg feed 6 d, day 20) was 25%. The Hen-day egg production ([1]; 40 mg/kg feed 6 d, day 22) was 25%, the Hen-day egg production ([1]; 40 mg/kg feed 6 d, day 24) was 50% and the “Feed consumption (FC)” value ([1]; 40 mg/kg feed 10 d, Day 11-14) was 19.3 g/hen/d. For the same molecule, the “Feed consumption change from days 2-4 (% FCC)” value ([1]; 40 mg/kg feed 10 d, Day 11-14) was −83.4%, the “Feed consumption (FC)” value ([1]; 40 mg/kg feed 10 d, Days 2-4 (pre-treatment)) was 116.3 g/hen/d and the “Feed consumption (FC)” value ([1]; 40 mg/kg feed 10 d, Days 5-7) was 37.3 g/hen/d. For the same molecule, the “Feed consumption change from days 2-4 (% FCC)” value ([1]; 40 mg/kg feed 10 d, Days 5-7) was −67.9%, the “Feed consumption (FC)” value ([1]; 40 mg/kg feed 10 d, Days 8-10) was 22.0 g/hen/d and the “Feed consumption change from days 2-4 (% FCC)” value ([1]; 40 mg/kg feed 10 d, Days 8-10) was −81.1%. It also gave a Hen-day egg production ([1]; 40 mg/kg feed 10 d, day 12) of 0%, a Hen-day egg production ([1]; 40 mg/kg feed 10 d, day 14) of 0% and a Hen-day egg production ([1]; 40 mg/kg feed 10 d, day 16) of 0%. The Hen-day egg production ([1]; 40 mg/kg feed 10 d, day 18) was 0%, the Hen-day egg production ([1]; 40 mg/kg feed 10 d, day 20) was 0% and the Mortality ([1]; 10, 20, 40 mg T4/kg feed, 6 or 10 days) was “No mortality occurred in any of the Groups”. The “Time within which egg production was consistently reduced” value ([1]; 20 and 40 mg T4/kg feed) was at most 4 days, the “Effect on egg production” value ([2]; 250 μg T4 per kg body weight i.m. for 12 consecutive days) was “did not reduce egg production significantly” and the “Day after start of T4 injection on which molting began in all cages” value ([2]; 500 μg T4 Group) was 11 days. The “Time after start of injecting at which egg production was significantly reduced” value ([2]; 500 μg T4 Group) was 4 days, the “Day after start of T4 injection on which molting began in all cages” value ([2]; 1,000 μg T4 Group) was 9 days and the “Time after start of injecting at which egg production was significantly reduced” value ([2]; 1,000 μg T4 Group) was 4 days. For the same molecule, the Mortality ([2]; 1,000 μg T4 Group, 2 of 8 hens, died 9th and 10th day after start of injection) was 25%, the “Day after start of injection on which molting commenced in all cages” value ([2]; 2,000 μg T4 Group) was 9 days and the “Time to rapid and complete cessation of egg production” value ([2]; 2,000 μg T4 per kg body weight i.m. for 3 consecutive days) was at most 6 days. For the same molecule, the “Day after start of injection on which molting commenced in all cages” value ([2]; 4,000 μg T4 Group) was 9 days, the Mortality ([2]; 4000 μg T4 Group, 1 of 4 hens, died 8th day after start of injection) was 25% and the “Time to rapid and complete cessation of egg production” value ([2]; 4,000 μg T4 per kg body weight i.m. for 3 consecutive days) was at most 4 days. The “End of Injections Body Weight” value ([2]; 250 mcg/kg BW i.m. 12 d) was 1300 g, the “Feed Intake” value ([2]; 250 mcg/kg BW i.m. 12 d) was 58.7 g/hen/day and the “Feed Intake” value ([2]; 500 mcg/kg BW i.m. 8 d) was 52.3 g/hen/day. For the same molecule, the “Feed Intake” value ([2]; 1,000 mcg/kg BW i.m. 8 d) was 31.4 g/hen/day, the “Feed Intake” value ([2]; 2,000 mcg/kg BW i.m. 3 d) was 20.2 g/hen/day and the “Feed Intake” value ([2]; 4,000 mcg/kg BW i.m. 3 d) was 11.7 g/hen/day. The “9 Jun. 2005 (9th d Trt) Body Wt Change” value (Bovans caged laying hens; 20 mg T4/kg diet) was −0.50^b lb, the “25 May 2005 Initial Body Wt” value (Bovans caged laying hens; 20 mg T4/kg diet) was 3.49 lb and the “Days to 0% egg production” value (Bovans caged laying hens; 40 mg T4/kg diet) was 11 days. For the same molecule, the “Weight loss” value (Bovans caged laying hens; 40 mg T4/kg diet) was −0.54 lb, the “9 Jun. 2005 (9th d Trt) Body Wt Change” value (Bovans caged laying hens; 40 mg T4/kg diet) was −0.60^b lb and the “25 May 2005 Initial Body Wt” value (Bovans caged laying hens; 40 mg T4/kg diet) was 3.57 lb. The “Days to target body weight (30% body weight loss)” value ([3]; 10 mg/kg feed in grape pomace diet after 1-day feed withdrawal) was 16 days, the “Days to target body weight (30% body weight loss)” value ([3]; corn diet with or without 10 mg/kg, 1-day fast or no fast) was 28 days and the “Effectiveness at regressing reproductive tracts” value (turkey breeder hens) was “not as effective as porcine thyroid powder”.
